Measured values reported in patent US10787436B2, “Inhibitors of cyclin-dependent kinase 7 (CDK7)” (Dana-Farber Cancer Institute, Inc., priority 2012, dated 2020).
pEC50, pIC50: −log10 of the molar value. Like-named read-outs stand apart in the source and are kept apart here.

Assays:
HL60 = assay: Proliferation assay, CellTiter-Glo, 72 hour; assay type: cell-based; conditions: read-out: Inhibition of proliferation, HL60
THP-1 = assay: Proliferation assay, CellTiter-Glo, 72 hour; assay type: cell-based; conditions: read-out: Inhibition of proliferation, THP-1
MV4-11 = assay: Proliferation assay, CellTiter-Glo, 72 hour; assay type: cell-based; conditions: read-out: Inhibition of proliferation, MV4-11
RS4-11 = assay: Proliferation assay, CellTiter-Glo, 72 hour; assay type: cell-based; conditions: read-out: Inhibition of proliferation, RS4-11
hTERT-HME1 = assay: Proliferation assay, CellTiter-Glo, 72 hour; assay type: cell-based; conditions: read-out: Inhibition of proliferation, hTERT-HME1
MDA-MB231 = assay: Proliferation assay, CellTiter-Glo, 72 hour; assay type: cell-based; conditions: read-out: Inhibition of proliferation, MDA-MB231
MCF7 = assay: Proliferation assay, CellTiter-Glo, 72 hour; assay type: cell-based; conditions: read-out: Inhibition of proliferation, MCF7
MCF10A = assay: Proliferation assay, CellTiter-Glo, 72 hour; assay type: cell-based; conditions: non-tumorigenic breast epithelial cell line, read-out: Inhibition of proliferation, MCF10A
T47D = assay: Proliferation assay, CellTiter-Glo, 72 hour; assay type: cell-based; conditions: breast cancer cell line, read-out: Inhibition of proliferation, T47D
SKBR3 = assay: Proliferation assay, CellTiter-Glo, 72 hour; assay type: cell-based; conditions: read-out: Inhibition of proliferation, SKBR3
A673 = assay: Proliferation assay, CellTiter-Glo, 72 hour; assay type: cell-based; conditions: read-out: Inhibition of proliferation, A673
Hs822T = assay: Proliferation assay, CellTiter-Glo, 72 hour; assay type: cell-based; conditions: Ewing's sarcoma cell line, read-out: Inhibition of proliferation, Hs822T
Hs863T = assay: Proliferation assay, CellTiter-Glo, 72 hour; assay type: cell-based; conditions: Ewing's sarcoma cell line, read-out: Inhibition of proliferation, Hs863T
RD-ES = assay: Proliferation assay, CellTiter-Glo, 72 hour; assay type: cell-based; conditions: Ewing's sarcoma cell line, read-out: Inhibition of proliferation, RD-ES
SK-ES = assay: Proliferation assay, CellTiter-Glo, 72 hour; assay type: cell-based; conditions: Ewing's sarcoma cell line, read-out: Inhibition of proliferation, SK-ES
SAOS = assay: Proliferation assay, CellTiter-Glo, 72 hour; assay type: cell-based; conditions: osteosarcoma cell line, read-out: Inhibition of proliferation, SAOS
MNNG-HOS Cl#5 = assay: Proliferation assay, CellTiter-Glo, 72 hour; assay type: cell-based; conditions: osteosarcoma cell line, read-out: Inhibition of proliferation, MNNG-HOS Cl#5
143B = assay: Proliferation assay, CellTiter-Glo, 72 hour; assay type: cell-based; conditions: osteosarcoma cell line, read-out: Inhibition of proliferation, 143B
[1] = system: patient-derived chronic lymphocytic leukemia (CLL) isolates; assay: Cell death of patient-derived CLL isolates, Annexin V staining, 24 hour; assay type: cell-based, human; conditions: Homo sapiens, read-out: Pro-death signaling, average EC50 values
Experimental: Clinical isolates of CLL were cultured with compounds of Formula (I) or flavopiridol and assessed for cell death after a 24 hour time course by Annexin V staining. […] Anti-proliferative effect was measured using cell titer glo analysis.
PBMCs freshly isolated from peripheral blood are seeded in 24 well plates at a volume of 0.5 ml and a concentration of 2×10^6 cells/ml. Compounds and controls are added to respective wells in a total volume of 2.5 μl. Plates are mixed gently and incubated approximately 24 hours at 37° C., 5% CO2. Apoptosis was measured in all cells from each well using the Annexin V: FITC Apoptosis Detection Kit I (BD Biosciences). Normalized % death was calculated as follows: [(% Dead Drug−% Dead DMSO)/(100%−% Dead DMSO)]×100

RNAP II occupancy = assay: RNAP II ChIP-seq in Jurkat cells; assay type: cell-based, human; conditions: 250 nM for 6 hours
Experimental: After the indicated treatment time, cells were crosslinked for 10 minutes at room temperature by the addition of one-tenth of the volume of 11% formaldehyde solution (11% formaldehyde, 50 mM Hepes (pH 7.3), 100 mM NaCl, 1 mM EDTA (pH 8.0), 0.5 mM EGTA (pH 8.0)) to the growth media followed by two washes with PBS. Following the final PBS wash, supernatant was aspirated, and the cell pellet was flash frozen in liquid nitrogen. Frozen crosslinked cells were stored at −80° C.
50 μl of Dynal magnetic beads (Sigma) were blocked with 0.5% BSA (w/v) in PBS. Magnetic beads were bound with 5 μg of the indicated antibody. Antibodies used are as follows: Total RNAP II (Rpb1 N-terminus): Santa Cruz sc-899; CDK7: Bethyl A300-405A. Crosslinked cells were lysed with lysis buffer 1 (50 mM Hepes (pH 7.3), 140 mM NaCl, 1 mM EDTA, 10% glycerol, 0.5% NP-40, and 0.25% Triton X-100) and washed with lysis buffer 2 (10 mM Tris-HCl (pH 8.0), 200 mM NaCl, 1 mM EDTA (pH 8.0) and 0.5 mM EGTA (pH 8.0)). […]
Illumina sequencing libraries were generated, and data were processed according to Lin et al., Cell (2012) 151:56-67. […] These criteria preserved only reads that mapped uniquely to the genome with 1 or fewer mismatches. […]

CDK7 [2] = target: T1, CDK7 (Homo sapiens (Human), UniProt P50613); assay: In vitro inhibitory activity against CDK7 (Table 1); assay type: biochemical
Experimental: In vitro kinase assays with immunoprecipitated proteins (or recombinant CAK complexes) were performed as follows. Kinase reactions were performed in 25 μL of final volume of reaction buffer (50 mM Hepes, pH 7.5, 150 mM NaCl, 10 mM MgCl2, 5% glycerol, 25 μM ATP, and 10 μCi of [γ-32P]ATP). Each reaction contained 1 μg of RNAP II. Incubation was at 30° C. for 30-45 min. Reactions were terminated by addition of 5 μL of 5×SDS-PAGE sample buffer and incubated at 95° C. for 5 min. Reactions were analyzed by SDS-PAGE, and the dried gel was exposed to film or PhosphorImager plate.
Target sequence in this assay (P50613 whole entry, looked up): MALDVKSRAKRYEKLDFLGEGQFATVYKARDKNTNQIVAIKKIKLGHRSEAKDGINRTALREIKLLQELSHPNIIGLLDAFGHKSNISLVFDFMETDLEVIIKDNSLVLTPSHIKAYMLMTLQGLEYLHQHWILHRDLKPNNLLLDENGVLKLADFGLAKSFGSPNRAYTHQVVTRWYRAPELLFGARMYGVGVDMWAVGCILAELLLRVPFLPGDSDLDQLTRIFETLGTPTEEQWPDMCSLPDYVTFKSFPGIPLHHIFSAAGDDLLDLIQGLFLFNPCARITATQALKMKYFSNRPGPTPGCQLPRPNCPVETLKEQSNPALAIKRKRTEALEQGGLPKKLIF
Target sequence in this assay (P51946 whole entry partner, looked up): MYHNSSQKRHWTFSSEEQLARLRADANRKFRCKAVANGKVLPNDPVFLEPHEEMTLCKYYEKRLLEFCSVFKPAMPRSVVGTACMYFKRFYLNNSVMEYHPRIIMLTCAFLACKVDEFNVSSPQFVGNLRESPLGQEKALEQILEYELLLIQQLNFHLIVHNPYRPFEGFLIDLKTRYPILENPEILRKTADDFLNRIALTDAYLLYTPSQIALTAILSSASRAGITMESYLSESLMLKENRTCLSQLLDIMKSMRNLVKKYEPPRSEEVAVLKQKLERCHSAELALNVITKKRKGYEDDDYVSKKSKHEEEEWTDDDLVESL
Target sequence in this assay (P51948 whole entry partner, looked up): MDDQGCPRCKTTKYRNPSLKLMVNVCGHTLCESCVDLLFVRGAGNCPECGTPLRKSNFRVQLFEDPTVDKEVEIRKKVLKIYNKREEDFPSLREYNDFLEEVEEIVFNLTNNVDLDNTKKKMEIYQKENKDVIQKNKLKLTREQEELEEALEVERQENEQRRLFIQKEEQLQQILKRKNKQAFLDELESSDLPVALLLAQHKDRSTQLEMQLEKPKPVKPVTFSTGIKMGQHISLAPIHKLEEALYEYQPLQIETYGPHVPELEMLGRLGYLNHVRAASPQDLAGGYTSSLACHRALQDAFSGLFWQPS

IRAK1 = IRAK1 (Homo sapiens (Human), UniProt P51617); assay: Life Technologies Adapta kinase assay, IRAK1; assay type: biochemical; conditions: superscript b (footnote not given; tested at 100 nM and 1 μM)
Chain of IRAK1 (P51617 whole entry): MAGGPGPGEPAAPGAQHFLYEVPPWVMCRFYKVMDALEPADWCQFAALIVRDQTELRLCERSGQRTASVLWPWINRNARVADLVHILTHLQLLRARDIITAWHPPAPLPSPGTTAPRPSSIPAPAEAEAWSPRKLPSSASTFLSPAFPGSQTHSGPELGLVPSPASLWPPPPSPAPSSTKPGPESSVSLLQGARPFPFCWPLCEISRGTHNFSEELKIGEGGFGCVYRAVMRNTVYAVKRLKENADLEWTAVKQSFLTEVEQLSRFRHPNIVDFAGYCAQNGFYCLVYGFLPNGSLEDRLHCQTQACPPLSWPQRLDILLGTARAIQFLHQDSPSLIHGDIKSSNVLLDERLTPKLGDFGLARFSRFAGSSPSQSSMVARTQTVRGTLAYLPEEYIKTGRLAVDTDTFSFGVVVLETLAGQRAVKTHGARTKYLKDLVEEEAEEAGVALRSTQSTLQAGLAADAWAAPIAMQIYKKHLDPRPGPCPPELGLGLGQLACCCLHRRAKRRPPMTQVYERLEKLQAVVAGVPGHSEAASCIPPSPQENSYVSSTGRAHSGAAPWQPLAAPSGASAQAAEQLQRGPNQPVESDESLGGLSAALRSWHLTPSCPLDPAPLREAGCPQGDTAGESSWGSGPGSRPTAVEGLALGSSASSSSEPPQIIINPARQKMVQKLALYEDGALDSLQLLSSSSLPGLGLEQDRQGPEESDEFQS

MLK3 = MLK3 (Homo sapiens (Human), UniProt Q16584); assay: Life Technologies LanthaScreen Eu kinase assay, MLK3; assay type: binding; conditions: for pIC50: read-out: Calculated IC50, MLK3
Chain of MLK3 (Q16584 whole entry): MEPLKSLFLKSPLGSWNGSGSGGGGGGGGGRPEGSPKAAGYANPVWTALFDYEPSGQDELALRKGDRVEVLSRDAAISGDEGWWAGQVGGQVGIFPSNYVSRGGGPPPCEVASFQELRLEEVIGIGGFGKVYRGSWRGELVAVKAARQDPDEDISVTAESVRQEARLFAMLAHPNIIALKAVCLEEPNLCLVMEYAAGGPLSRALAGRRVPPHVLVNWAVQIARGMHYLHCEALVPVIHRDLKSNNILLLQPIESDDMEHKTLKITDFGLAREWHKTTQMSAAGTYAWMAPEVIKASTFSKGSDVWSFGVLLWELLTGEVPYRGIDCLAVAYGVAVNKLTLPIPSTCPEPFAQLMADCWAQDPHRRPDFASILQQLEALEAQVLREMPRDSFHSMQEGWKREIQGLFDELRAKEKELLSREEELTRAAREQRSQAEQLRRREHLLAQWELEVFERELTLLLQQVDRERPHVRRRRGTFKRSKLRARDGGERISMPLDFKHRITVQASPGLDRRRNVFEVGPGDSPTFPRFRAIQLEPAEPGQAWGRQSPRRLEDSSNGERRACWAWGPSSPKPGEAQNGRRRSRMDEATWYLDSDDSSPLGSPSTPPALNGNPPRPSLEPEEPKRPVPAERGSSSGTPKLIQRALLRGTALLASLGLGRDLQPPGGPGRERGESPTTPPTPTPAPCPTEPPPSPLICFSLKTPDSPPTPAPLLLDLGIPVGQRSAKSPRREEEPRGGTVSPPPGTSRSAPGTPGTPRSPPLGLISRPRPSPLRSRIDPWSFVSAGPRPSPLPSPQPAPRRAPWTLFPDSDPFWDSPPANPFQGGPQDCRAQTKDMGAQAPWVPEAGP

CDK7 [3] = target: T1, CDK7; assay: Compound I-49 pull down from Loucy cellular lysates; assay type: binding; conditions: 1 μM, 4° C., 12 hours
Experimental: Precipitated proteins were washed and probed for CDK7.
(§1) Following the treatment, the cells were washed 2-fold with cold PBS and then lysed in the following lysis buffer: 50 mM TrisHCl pH 8.0, 150 mM NaCl, 1% NP-40, 5 mM EDTA, 1 mM DTT, and protease/phosphatase cocktails. Following clearance, the lysates were treated with compound I-49 for pulldown (or CDK7 antibody for IP) overnight at 4° C. The lysates were then incubated with streptavidin agarose for pulldown (or Protein G Agarose for IP) for an additional 2-3 hours at 4° C. Agarose beads were washed 5 times with a lysis buffer and then boiled in 2X SDS for 10 minutes at 95° C.
Target sequence in this assay (P50613 whole entry): as the sequence (P50613 whole entry, looked up) above

[4] = system: CDK1, CDK2, CDK4, and CDK6; assay: as above; assay type: binding
Experimental: (§2) However, cyclin K, which is known to bind to CDK12/13, did interact with I-49. […] Lysates were then probed with I-49. Precipitated proteins were washed and probed with antibodies as shown.
as §1

cyclin K = assay: as above; assay type: binding
Experimental: as §2, §1

Jurkat = Jurkat (proliferation, CellTiter-Glo); assay type: cell-based; conditions: Homo sapiens, Jurkat; read-out: Calculated IC50, Jurkat
CDK5/p25 = CDK5/p25 (Homo sapiens (Human), UniProt Q00535); assay: Life Technologies Z'-Lyte kinase assay, CDK5/p25; assay type: biochemical; conditions: read-out: Calculated IC50, CDK5/p25
Chain of CDK5/p25 (Q00535 whole entry): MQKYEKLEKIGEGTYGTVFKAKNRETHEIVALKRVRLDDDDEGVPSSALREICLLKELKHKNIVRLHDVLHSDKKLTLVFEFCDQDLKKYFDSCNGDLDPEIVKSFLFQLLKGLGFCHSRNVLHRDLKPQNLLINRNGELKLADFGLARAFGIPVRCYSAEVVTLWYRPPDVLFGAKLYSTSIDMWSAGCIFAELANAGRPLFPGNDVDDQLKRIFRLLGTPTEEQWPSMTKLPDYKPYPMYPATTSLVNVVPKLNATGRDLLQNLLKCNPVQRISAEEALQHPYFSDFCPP
Chain of CDK5/p25 (Q15078 99-307 partner): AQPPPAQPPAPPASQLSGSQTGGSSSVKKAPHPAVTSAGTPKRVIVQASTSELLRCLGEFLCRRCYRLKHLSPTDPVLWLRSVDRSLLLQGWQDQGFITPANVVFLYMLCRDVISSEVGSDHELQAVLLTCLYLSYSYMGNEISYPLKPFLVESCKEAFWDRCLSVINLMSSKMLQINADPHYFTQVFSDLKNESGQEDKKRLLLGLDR

[5] = Homo sapiens, HL-60, blood cancer cell line
[6] = Homo sapiens, THP-1, blood cancer cell line
[7] = Homo sapiens, MV4-11, blood cancer cell line
[8] = Homo sapiens, RS4-11, blood cancer cell line
[9] = hTERT-HME1, immortalized normal mammary epithelial cell line
[10] = Homo sapiens, MDA-MB-231, breast cancer cell line
[11] = Homo sapiens, MCF7, breast cancer cell line
[12] = Homo sapiens, SK-BR-3, breast cancer cell line
[13] = Homo sapiens, A673, Ewing's sarcoma cell line

Row | SMILES | pIC50 (SK-ES) | pIC50 (MLK3) | pIC50 (HL60; [5]) | pIC50 (THP-1; [6]) | pIC50 (MV4-11; [7]) | pIC50 (RS4-11; [8]) | pIC50 (hTERT-HME1; [9]) | pIC50 (MDA-MB231; [10]) | pIC50 (MCF7; [11]) | pIC50 (MCF10A; Homo sapiens, MCF-10A) | pIC50 (T47D; Homo sapiens, T47D) | pIC50 (SKBR3; [12]) | pIC50 (A673; [13]) | pIC50 (Hs822T) | pIC50 (Hs863T) | pIC50 (RD-ES; RD-ES) | pIC50 (SAOS) | pIC50 (MNNG-HOS Cl#5) | pIC50 (143B; Homo sapiens, 143B) | also measured
1 | CN1CC[C@H](c2c(O)cc(O)c3c(=O)cc(-c4ccccc4Cl)oc23)[C@H](O)C1 [Flavopiridol, flavopiridol, reference compound] | > 6.30 | – | > 6.30 | > 6.30 | > 6.30 | > 6.30 | > 6.30 | > 6.30 | 5.30 to 6.30 | > 6.30 | < 5.30 | > 6.30 | > 6.30 | < 5.30 | < 5.30 | > 6.30 | > 6.30 | 5.30 to 6.30 | 5.30 to 6.30 | pEC50 [1]: > 6.70; RNAP II occupancy at the promoter proximal pause site (RNAP II occupancy): unaffected
2 | CN(C/C=C/C(=O)Nc1ccc(C(=O)Nc2cccc(Nc3ncc(Cl)c(-c4c[nH]c5ccccc45)n3)c2)cc1)CCCNC(=O)NCCOCCOCCOCCNC(=O)CCCCC1SCC2NC(=O)NC21 (stereo not drawn) [Formula I-49] | – | – | – | – | – | – | – | – | – | – | – | – | – | – | – | – | – | – | – | Pull down of CDK7 from cellular lysates (CDK7 [3]): pulls down CDK7; Interaction with CDK1, CDK2, CDK4, and CDK6 [4]: do not interact; Interaction with cyclin K (cyclin K): did interact
3 | CC(C)[C@]12O[C@H]1[C@@H]1O[C@]13[C@]1(O[C@H]1C[C@H]1C4=C(CC[C@@]13C)C(=O)OC4)[C@@H]2O [Triptolide, triptolide, reference compound] | > 6.30 | – | > 6.30 | > 6.30 | > 6.30 | > 6.30 | > 6.30 | > 6.30 | > 6.30 | > 6.30 | < 5.30 | > 6.30 | > 6.30 | 5.30 to 6.30 | < 5.30 | > 6.30 | > 6.30 | > 6.30 | > 6.30 | –

Second part, led by results:

Row | pIC50 (SK-ES) | pIC50 (MLK3) | SMILES | pIC50 (HL60; [5]) | pIC50 (THP-1; [6]) | pIC50 (MV4-11; [7]) | pIC50 (RS4-11; [8]) | pIC50 (hTERT-HME1; [9]) | pIC50 (MDA-MB231; [10]) | pIC50 (MCF7; [11]) | pIC50 (MCF10A; Homo sapiens, MCF-10A) | pIC50 (T47D; Homo sapiens, T47D) | pIC50 (SKBR3; [12]) | pIC50 (A673; [13]) | pIC50 (Hs822T) | pIC50 (Hs863T) | pIC50 (RD-ES; RD-ES) | pIC50 (SAOS) | pIC50 (MNNG-HOS Cl#5) | pIC50 (143B; Homo sapiens, 143B) | also measured
4 | > 6.30 | > 7.00 | Cc1ccc(Nc2ncc(C)c(-c3c[nH]c4ccccc34)n2)cc1NC(=O)c1ccc(NC(=O)/C=C/CN(C)C)cc1 [Formula I-20] | – | – | – | – | – | – | – | – | – | – | – | > 6.30 | > 6.30 | – | > 6.30 | 5.30 to 6.30 | – | pIC50 (CDK7 [2]): 7.68; Percent inhibition, IRAK1^b (IRAK1): C (less than 50% inhibition); Percent inhibition, MLK3^b (MLK3; superscript b (footnote not given; tested at 100 nM and 1 μM)): C (less than 50% inhibition); pIC50 (HL60; blood cancer cell line): > 6.30; pIC50 (THP-1; blood cancer cell line): > 6.30; pIC50 (MV4-11; blood cancer cell line): > 6.30; pIC50 (RS4-11; blood cancer cell line): > 6.30; pIC50 (hTERT-HME1; immortalized normal mammary epithelial cell line): > 6.30; pIC50 (MDA-MB231; breast cancer cell line): > 6.30; pIC50 (MCF7; breast cancer cell line): > 6.30; pIC50 (MCF10A): > 6.30; pIC50 (T47D): 5.30 to 6.30; pIC50 (SKBR3; breast cancer cell line): 5.30 to 6.30; pIC50 (A673; Ewing's sarcoma cell line): > 6.30; pIC50 (RD-ES): > 6.30; pIC50 (143B): < 5.30
5 | – | > 7.00 | CN(C)C/C=C/C(=O)Nc1ccc(C(=O)Nc2cccc(Nc3ncc(C#N)c(-c4c[nH]c5ccccc45)n3)c2)cc1 [Formula I-53, (E)-N-(3-(5-cyano-4-(1H-indol-3-yl)pyrimidin-2-ylamino)phenyl)-4-(4-(dimethylamino)but-2-enamido)benzamide] | – | – | – | – | – | – | – | – | – | – | – | – | – | – | – | – | – | pIC50 (Jurkat): > 7.00; pIC50 (CDK5/p25): 6.00 to 7.00
